According to patent US11912686B2 (Gilead Sciences, Inc., priority 2020, dated 2024):
One block for each compound: values may come before it.

Target: human LPAR1 (Homo sapiens (Human), UniProt Q92633)
Test: LPAR1 intracellular calcium mobilization assay (antagonist mode, FLIPR)
Assay type: cell-based
Conditions: CHO-K1 EDG2 cells expressing human LPAR1, LPA 18:2 at EC80 (100 nM), test compound 0.5 nM to 10 μM

human LPAR1, sequence (Q92633 whole entry): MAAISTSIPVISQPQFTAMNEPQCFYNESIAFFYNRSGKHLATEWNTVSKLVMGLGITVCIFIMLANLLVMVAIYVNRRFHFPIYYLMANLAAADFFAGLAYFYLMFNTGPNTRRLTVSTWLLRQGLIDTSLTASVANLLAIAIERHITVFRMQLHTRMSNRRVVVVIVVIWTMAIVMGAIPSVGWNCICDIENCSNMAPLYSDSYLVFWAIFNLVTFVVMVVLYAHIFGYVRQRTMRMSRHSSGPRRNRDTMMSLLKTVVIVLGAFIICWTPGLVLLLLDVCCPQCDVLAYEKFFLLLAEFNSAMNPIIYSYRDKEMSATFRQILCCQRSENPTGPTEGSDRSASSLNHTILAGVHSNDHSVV

SMILES: C[C@@H](OC(=O)Nc1c(-c2ccc(NC(=O)[C@@H]3CNC(=O)C3)cn2)nnn1C)c1cccnc1Cl [Compound 150, (R)-1-(2-chloropyridin-3-yl)ethyl (1-methyl-4-(5-((S)-5-oxopyrrolidine-3-carboxamido)pyridin-2-yl)-1H-1,2,3-triazol-5-yl)carbamate]
EC50: 880 nM

SMILES: C[C@@H](OC(=O)Nc1c(-c2ccc(NC(=O)[C@@H]3CCC(=O)N3)cn2)nnn1C)c1cccnc1Cl [Compound 151, (R)-1-(2-chloropyridin-3-yl)ethyl (1-methyl-4-(5-((S)-5-oxopyrrolidine-2-carboxamido)pyridin-2-yl)-1H-1,2,3-triazol-5-yl)carbamate]
EC50: 3150 nM

SMILES: C[C@@H](OC(=O)Nc1c(-c2ccc(NC(=O)[C@H]3CCC(=O)N3)cn2)nnn1C)c1cccnc1Cl [Compound 152, (R)-1-(2-chloropyridin-3-yl)ethyl (1-methyl-4-(5-((R)-5-oxopyrrolidine-2-carboxamido)pyridin-2-yl)-1H-1,2,3-triazol-5-yl)carbamate]
EC50: 3990 nM

SMILES: C[C@@H](OC(=O)Nc1c(-c2ccc(NC(=O)C3OCCO3)cn2)nnn1C)c1cccnc1Cl [Compound 153, (R)-1-(2-chloropyridin-3-yl)ethyl (4-(5-(1,3-dioxolane-2-carboxamido)pyridin-2-yl)-1-methyl-1H-1,2,3-triazol-5-yl)carbamate]
EC50: 933 nM

SMILES: C[C@@H](OC(=O)Nc1c(-c2ccc(NC(=O)[C@H]3C[C@H](O)C3)cn2)nnn1C)c1cccnc1Cl [Compound 154, (R)-1-(2-chloropyridin-3-yl)ethyl (4-(5-((1r,3R)-3-hydroxycyclobutane-1-carboxamido)pyridin-2-yl)-1-methyl-1H-1,2,3-triazol-5-yl)carbamate]
EC50: 668 nM

SMILES: C[C@@H](OC(=O)Nc1c(-c2ccc(NC(=O)[C@H]3C[C@@H](O)C3)cn2)nnn1C)c1cccnc1Cl [Compound 155, (R)-1-(2-chloropyridin-3-yl)ethyl (4-(5-((1s,3S)-3-hydroxycyclobutane-1-carboxamido)pyridin-2-yl)-1-methyl-1H-1,2,3-triazol-5-yl)carbamate]
EC50: 748 nM

SMILES: CO[C@H]1C[C@H](C(=O)Nc2ccc(-c3nnn(C)c3NC(=O)O[C@H](C)c3cccnc3Cl)nc2)C1 [Compound 156, (R)-1-(2-chloropyridin-3-yl)ethyl (4-(5-((1r,3R)-3-methoxycyclobutane-1-carboxamido)pyridin-2-yl)-1-methyl-1H-1,2,3-triazol-5-yl)carbamate]
EC50: 50.7 nM

SMILES: CO[C@H]1C[C@@H](C(=O)Nc2ccc(-c3nnn(C)c3NC(=O)O[C@H](C)c3cccnc3Cl)nc2)C1 [Compound 157, (R)-1-(2-chloropyridin-3-yl)ethyl (4-(5-((1s,3S)-3-methoxycyclobutane-1-carboxamido)pyridin-2-yl)-1-methyl-1H-1,2,3-triazol-5-yl)carbamate]
EC50: 74.5 nM

SMILES: C[C@@H](OC(=O)Nc1c(-c2ccc(NC(=O)C3[C@@H]4COC[C@@H]34)cn2)nnn1C)c1cccnc1Cl (stereo partly drawn) [Compound 158, (R)-1-(2-chloropyridin-3-yl)ethyl (4-(5-((1R,5R)-3-oxabicyclo[3.1.0]hexane-6-carboxamido)pyridin-2-yl)-1-methyl-1H-1,2,3-triazol-5-yl)carbamate]
EC50: 117 nM

SMILES: C[C@@H](OC(=O)Nc1c(-c2ccc(NC(=O)C3C4CCOC43)cn2)nnn1C)c1cccnc1Cl (stereo partly drawn) [Compound 159, (R)-1-(2-chloropyridin-3-yl)ethyl (4-(5-(2-oxabicyclo[3.1.0]hexane-6-carboxamido)pyridin-2-yl)-1-methyl-1H-1,2,3-triazol-5-yl)carbamate]
EC50: 394 nM

SMILES: Cc1cc(C2(C(=O)Nc3ccc(-c4nnn(C)c4NC(=O)O[C@H](C)c4cccnc4Cl)nc3)CC2)on1 [Compound 160, (R)-1-(2-chloropyridin-3-yl)ethyl (1-methyl-4-(5-(1-(3-methylisoxazol-5-yl)cyclopropane-1-carboxamido)pyridin-2-yl)-1H-1,2,3-triazol-5-yl)carbamate]
EC50: 1450 nM

SMILES: C[C@@H](OC(=O)Nc1c(-c2ccc(NC(=O)[C@@H]3C[C@H]3F)cn2)nnn1C)c1cc(F)cnc1F [Compound 161, (R)-1-(2,5-difluoropyridin-3-yl)ethyl (4-(5-((1S,2R)-2-fluorocyclopropane-1-carboxamido)pyridin-2-yl)-1-methyl-1H-1,2,3-triazol-5-yl)carbamate]
EC50: 66.8 nM

SMILES: C[C@@H](OC(=O)Nc1c(-c2ccc(NC(=O)C34CC(C#N)(C3)C4)cn2)nnn1C)c1cc(F)cnc1F [Compound 162, (R)-1-(2,5-difluoropyridin-3-yl)ethyl (4-(5-(3-cyanobicyclo[1.1.1]pentane-1-carboxamido)pyridin-2-yl)-1-methyl-1H-1,2,3-triazol-5-yl)carbamate]
EC50: 84.7 nM

SMILES: C[C@@H](OC(=O)Nc1c(-c2ccc(NC(=O)C34CC(F)(C3)C4)cn2)nnn1C)c1cc(F)cnc1F [Compound 163, (R)-1-(2,5-difluoropyridin-3-yl)ethyl (4-(5-(3-fluorobicyclo[1.1.1]pentane-1-carboxamido)pyridin-2-yl)-1-methyl-1H-1,2,3-triazol-5-yl)carbamate]
EC50: 32.6 nM

SMILES: C[C@@H](OC(=O)Nc1c(-c2ccc(NC(=O)[C@@H]3CC3(F)F)cn2)nnn1C)c1cc(F)cnc1F [Compound 164, (R)-1-(2,5-difluoropyridin-3-yl)ethyl (4-(5-((S)-2,2-difluorocyclopropane-1-carboxamido)pyridin-2-yl)-1-methyl-1H-1,2,3-triazol-5-yl)carbamate]
EC50: 245 nM

SMILES: C[C@@H](OC(=O)Nc1c(-c2ccc(NC(=O)C3(C(F)F)CC3)cn2)nnn1C)c1cc(F)cnc1F [Compound 165, (R)-1-(2,5-difluoropyridin-3-yl)ethyl (4-(5-(1-(difluoromethyl)cyclopropane-1-carboxamido)pyridin-2-yl)-1-methyl-1H-1,2,3-triazol-5-yl)carbamate]
EC50: 487 nM

SMILES: C[C@@H](OC(=O)Nc1c(-c2ccc(NC(=O)C3(C(F)F)CC3)cn2)nnn1C)c1cc(F)cnc1Cl [Compound 166, (R)-1-(2-chloro-5-fluoropyridin-3-yl)ethyl (4-(5-(1-(difluoromethyl)cyclopropane-1-carboxamido)pyridin-2-yl)-1-methyl-1H-1,2,3-triazol-5-yl)carbamate]
EC50: 238 nM

SMILES: C[C@@H](OC(=O)Nc1c(-c2ccc(NC(=O)C34CC(C#N)(C3)C4)cn2)nnn1C)c1cc(F)cnc1Cl [Compound 167, (R)-1-(2-chloro-5-fluoropyridin-3-yl)ethyl (4-(5-(3-cyanobicyclo[1.1.1]pentane-1-carboxamido)pyridin-2-yl)-1-methyl-1H-1,2,3-triazol-5-yl)carbamate]
EC50: 99.4 nM

SMILES: C[C@@H](OC(=O)Nc1c(-c2ccc(NC(=O)C3(C#N)CC3)cn2)nnn1C)c1cc(F)cnc1Cl [Compound 168, (R)-1-(2-chloro-5-fluoropyridin-3-yl)ethyl (4-(5-(1-cyanocyclopropane-1-carboxamido)pyridin-2-yl)-1-methyl-1H-1,2,3-triazol-5-yl)carbamate]
EC50: 16.2 nM

SMILES: C[C@@H](OC(=O)Nc1c(-c2ccc(NC(=O)[C@@H]3C[C@H]3F)cn2)nnn1C)c1cccnc1F [Compound 169, (R)-1-(2-fluoropyridin-3-yl)ethyl (4-(5-((1S,2R)-2-fluorocyclopropane-1-carboxamido)pyridin-2-yl)-1-methyl-1H-1,2,3-triazol-5-yl)carbamate]
EC50: 191 nM

SMILES: C[C@@H](OC(=O)Nc1c(-c2ccc(NC(=O)C34CC(C(F)(F)F)(C3)C4)cn2)nnn1C)c1cccnc1F [Compound 170, (R)-1-(2-fluoropyridin-3-yl)ethyl (1-methyl-4-(5-(3-(trifluoromethyl)bicyclo[1.1.1]pentane-1-carboxamido)pyridin-2-yl)-1H-1,2,3-triazol-5-yl)carbamate]
EC50: 31.8 nM

SMILES: C[C@@H](OC(=O)Nc1c(-c2ccc(NC(=O)C3CC(F)(F)C3)cn2)nnn1C)c1cccnc1F [Compound 171, (R)-1-(2-fluoropyridin-3-yl)ethyl (4-(5-(3,3-difluorocyclobutane-1-carboxamido)pyridin-2-yl)-1-methyl-1H-1,2,3-triazol-5-yl)carbamate]
EC50: 140 nM

SMILES: C[C@@H](OC(=O)Nc1c(-c2ccc(NC(=O)C3(C#N)CC3)cn2)nnn1C)c1cccnc1F [Compound 172, (R)-1-(2-fluoropyridin-3-yl)ethyl (4-(5-(1-cyanocyclopropane-1-carboxamido)pyridin-2-yl)-1-methyl-1H-1,2,3-triazol-5-yl)carbamate]
EC50: 236 nM

SMILES: C[C@@H](OC(=O)Nc1c(-c2ccc(NC(=O)C34CC(F)(C3)C4)cn2)nnn1C)c1cccnc1F [Compound 173, (R)-1-(2-fluoropyridin-3-yl)ethyl (4-(5-(3-fluorobicyclo[1.1.1]pentane-1-carboxamido)pyridin-2-yl)-1-methyl-1H-1,2,3-triazol-5-yl)carbamate]
EC50: 181 nM

EC50: 107 nM
SMILES: C[C@@H](OC(=O)Nc1c(-c2ccc(NC(=O)C34CC(C#N)(C3)C4)cn2)nnn1C)c1cccnc1F [Compound 174, (R)-1-(2-fluoropyridin-3-yl)ethyl (4-(5-(3-cyanobicyclo[1.1.1]pentane-1-carboxamido)pyridin-2-yl)-1-methyl-1H-1,2,3-triazol-5-yl)carbamate]

SMILES: Cc1ncc(F)cc1[C@@H](C)OC(=O)Nc1c(-c2ccc(NC(=O)C3CC(F)(F)C3)cn2)nnn1C [Compound 175, (R)-1-(5-fluoro-2-methylpyridin-3-yl)ethyl (4-(5-(3,3-difluorocyclobutane-1-carboxamido)pyridin-2-yl)-1-methyl-1H-1,2,3-triazol-5-yl)carbamate]
EC50: 35.4 nM

SMILES: Cc1ncc(F)cc1[C@@H](C)OC(=O)Nc1c(-c2ccc(NC(=O)[C@@H]3C[C@H]3F)cn2)nnn1C [Compound 176, (R)-1-(5-fluoro-2-methylpyridin-3-yl)ethyl (4-(5-((1S,2R)-2-fluorocyclopropane-1-carboxamido)pyridin-2-yl)-1-methyl-1H-1,2,3-triazol-5-yl)carbamate]
EC50: 253 nM

SMILES: Cc1ncc(F)cc1[C@@H](C)OC(=O)Nc1c(-c2ccc(NC(=O)C3(C#N)CC3)cn2)nnn1C [Compound 177, (R)-1-(5-fluoro-2-methylpyridin-3-yl)ethyl (4-(5-(1-cyanocyclopropane-1-carboxamido)pyridin-2-yl)-1-methyl-1H-1,2,3-triazol-5-yl)carbamate]
EC50: 48.3 nM
